Columns and labels:
VHL [1] = molecular target: T1, VHL (Homo sapiens, UniProt P40337); experiment: WaterLOGSY and saturation transfer difference (STD) NMR binding; conditions: FIG. 2
VHL [2] = molecular target: T1, VHL; experiment: Fluorescence polarization competition assay (HIF-1α peptide FP displacement)

| Compound | binding to VHL by WaterLOGSY NMR spectroscopy (VHL [1]) | IC50 (VHL [2]; IC50 (μM) 1% DMSO, 1% DMSO) | IC50 (VHL [2]; IC50 (μM) 10% DMSO, 10% DMSO) |
| --- | --- | --- | --- |
| O=C(O)[C@@H]1C[C@@H](O)CN1 [L-Hyp] | not | – | – |
| Cc1cc(CC(=O)N2C[C@H](O)C[C@H]2C(=O)NCc2ccc(-c3ccn[nH]3)cc2)on1 [VL160] | – | 9 µM | 12.1 µM |
| Cc1cc(CC(=O)N2C[C@H](O)C[C@H]2C(=O)N[C@@H](CO)c2ccc(Cl)cc2)on1 [VL161] | – | 35 µM | 36.4 µM |
| Cc1cc(CC(=O)N2C[C@H](O)C[C@H]2C(=O)N[C@H](CO)c2ccc(Cl)cc2)on1 [VL162] | – | – | 235 µM |
| CCCNC(=O)OC[C@@H](NC(=O)[C@@H]1C[C@@H](O)CN1C(=O)Cc1cc(C)no1)c1ccc(Cl)cc1 [VL163] | – | 610 µM | 508 µM |
| CCCNC(=O)OC[C@H](NC(=O)[C@@H]1C[C@@H](O)CN1C(=O)Cc1cc(C)no1)c1ccc(Cl)cc1 [VL164] | – | 40 µM | 72.9 µM |
